{"source": "patent US10791741B2", "about": "“Plant growth regulator” (JIANGSU HUIFENG BIO TECHNOLOGY CO., LTD., priority 2016, dated 2020)", "tested_on": "melon", "assay": "Comprehensive test on growth regulation for melon by thidiazuron combined with amino-oligosaccharin", "type": "in vivo", "details": "42 mg/kg", "procedure": "1. Comprehensive Test on Growth Regulation for Melon by Thidiazuron Combined with Amino-Oligosaccharin\nThe thidiazuron and amino-oligosaccharin were diluted with acetone to give a series of concentrations, and the crops were sprayed in the flowering phase to determine the effect of each concentration on crop growth in the field, so as to make a comprehensive evaluation with respect to the carpopodium diameter, fruit setting rate, disease inhibition rate, quality, and yield of the crops. Carpopodium diameter increase rate=(Plant height in water control group−Plant height in treatment group)/Plant height in water control group*100% Fruit setting increase rate=(Stem diameter in treatment group−Stem diameter in water control group)/Stem diameter in water control group*100% Disease reduction rate=(Disease index in water control group−Disease index in treatment group)/Disease index in water control group*100% Single fruit weight increase rate=(weight in treatment group−quality in water control group)/weight in water control group*100% Central sugar increase rate=(Central sugar content in treatment group−Central sugar content in water control group)/Central sugar content in water control group*100%", "key": {"[1]": {"details": "flowering phase, vs water control"}, "[2]": {"details": "sprayed in flowering phase, 1 application"}}}
{"compound": "O=C(Nc1ccccc1)Nc1cnns1", "note": "[Thidiazuron, thidiazuron]", "values": [{"measurement": "Anthracnose index reduction rate (disease reduction rate)", "setting": "[1]", "result": 17.6, "unit": "%"}, {"measurement": "Carpopodium diameter increase rate", "setting": "[1]", "result": 4.0, "unit": "%"}, {"measurement": "Central sugar increase rate", "setting": "[1]", "result": 7.4, "unit": "%"}, {"measurement": "Fruit setting increase rate", "setting": "[1]", "result": 8.6, "unit": "%"}, {"measurement": "Single fruit weight increase rate", "setting": "[1]", "result": 8.9, "unit": "%"}, {"measurement": "Anthracnose index", "setting": "[2]", "result": 17.76}, {"measurement": "Carpopodium diameter", "setting": "[2]", "result": 6.65, "unit": "mm"}, {"measurement": "Central sugar content", "setting": "[2]", "result": 9.36, "unit": "%"}, {"measurement": "Fruit setting rate", "setting": "[2]", "result": 27.0, "unit": "%"}, {"measurement": "Single fruit weight", "setting": "[2]", "result": 1.03, "unit": "kg"}]}
